Drawing on patent US9988600B2, “Cell culture media” (MERCK PATENT GMBH, priority 2013, dated 2018), this text covers embedding effect for 32 compounds.

The series can be described thus: Effect of polymer embedding on components of DMEM F12 medium (embedded vs non-embedded form).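 Also: qualitative label per medium component: Hygros denotes lower hygroscopicity of the embedded form versus the free form, NA denotes not applicable.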 The format is physicochemical. The settings on record: component of DMEM F12 medium embedded in polymer, compared to the non-embedded form.

Counter-ions that a name gives are not always drawn.

Text: For all components the effect of polymer embedding is shown.
In Table 1, “Hygros” means that if the component is embedded according to the present invention and used in the media composition in its embedded form, the ability of said substance to attract and hold water molecules from the surrounding environment is reduced compared to the non-embedded form.

With `O=C(O)CCCCC1CCSS1` (racemic) [DL-alpha-lipoic acid], the embedding effect result is reported as “Oxid”.

For `O=C(O)CCCC[C@@H]1SC[C@@H]2NC(=O)N[C@@H]21` [Biotin], the embedding effect result is “Stab”.

`C[N+](C)(C)CCO.[Cl-]` [Choline chloride]: the embedding effect result was “Hygros”.

As to `O.O.O.O.O.O=S(=O)([O-])[O-].[Cu+2]` [Copper sulfate 5H2O], the embedding effect result was “Solu”.

As for `O.O.O.O.O.O.O.O.O.O=[N+]([O-])[O-].O=[N+]([O-])[O-].O=[N+]([O-])[O-].[Fe+3]` [Ferric nitrate 9H2O], the embedding effect result is recorded as “Solu”.

Turning to `O.O.O.O.O.O.O.O=S(=O)([O-])[O-].[Fe+2]` [Ferrous sulfate 7H2O], the embedding effect result is “Solu”.

On to `Nc1nc2ncc(CNc3ccc(C(=O)N[C@@H](CCC(=O)O)C(=O)O)cc3)nc2c(=O)[nH]1` [Folic acid], for which the embedding effect entry was “Stab”.

Take `C[C@H](N)C(=O)O` [L-Alanine]: the embedding effect entry is “Solu”.

Turning to `NC(=O)C[C@H](N)C(=O)O.O` [L-Asparagine H2O], the embedding effect entry was “Solu”.

For `Cl.N[C@@H](CS)C(=O)O.O` [L-Cysteine hydrochloride H2O], the embedding effect entry is on record as “Solu”.

Regarding `Cl.Cl.N[C@@H](CSSC[C@H](N)C(=O)O)C(=O)O` [L-Cystine 2HCl (mikronisiert), L-Cystine 2HCl (mikronisiert) aus 200635], the embedding effect result is recorded as “Solu”.

On to `NC(=O)CC[C@H](N)C(=O)O` [L-Glutamine], for which the embedding effect result is “Stab”.

As to `Cl.N[C@@H](Cc1cnc[nH]1)C(=O)O.O` [L-Histidine HCl H2O], the embedding effect result is reported as “Solu”.

As for `CC[C@H](C)[C@H](N)C(=O)O` [L-Isoleucine], the embedding effect entry is “Solu”.

`CC(C)C[C@H](N)C(=O)O` [L-Leucine]: the embedding effect entry is reported as “Solu”.

Consider `Cl.NCCCC[C@H](N)C(=O)O` [L-Lysine hydrochloride], for which the embedding effect entry was “Solu”.

With `CSCC[C@H](N)C(=O)O` [L-Methionine], the embedding effect entry was “Solu”.

As for `N[C@@H](Cc1ccccc1)C(=O)O` [L-Phenylalanine], the embedding effect entry is on record as “Solu”.

For `N[C@@H](CO)C(=O)O` [L-Serine], the embedding effect result was “Solu”.

On to `C[C@@H](O)[C@H](N)C(=O)O` [L-Threonine], for which the embedding effect result is given as “Solu”.

With `N[C@@H](Cc1c[nH]c2ccccc12)C(=O)O` [L-Thryptophan], the embedding effect entry is “Solu”.

For the compound `N[C@@H](Cc1ccc([O-])cc1)C(=O)[O-].O.O.[Na+].[Na+]` [L-Tyrosine 2Na], the embedding effect result is “Solu”.

Consider `CC(C)[C@H](N)C(=O)O` [L-Valine], for which the embedding effect entry is listed as “Solu”.

Consider `CCCCC/C=C\C/C=C\CCCCCCCC(=O)O` [Linoleic acid], for which the embedding effect result is recorded as “Oxid”.

For the compound `NC(=O)c1cccnc1` [Niacinamide], the embedding effect entry is “Stab”.

With `Cl.Cl.NCCCCN` [Putrescine 2HCl], the embedding effect result is “Stab”.

In the case of `Cc1ncc(CO)c(CO)c1O.Cl` [Pyridoxine HCl], the embedding effect result is recorded as “Stab”.

For the compound `Cc1cc2nc3c(=O)[nH]c(=O)nc-3n(C[C@H](O)[C@H](O)[C@H](O)CO)c2cc1C` [Riboflavin], the embedding effect result is “Stab”.

As to `CC(=O)C(=O)[O-].[Na+]` [Sodium pyruvate], the embedding effect result is on record as “Stab”.

As to `Cc1ncc(C[n+]2csc(CCO)c2C)c(N)n1` [Thiamine HCl], the embedding effect entry is given as “Stab”.

`O.O.O.O.O.O.O.O=S(=O)([O-])[O-].[Zn+2]` [Zinc sulafte 7H2O]: the embedding effect entry is “Solu”.

In the case of Vitamin B12, the embedding effect result is “Solu”.
